Test: Volume-based particle size distribution of bromocriptine mesylate by laser diffractometry (Sympatec HELOS)
Assay type: physicochemical
Conditions: Table 13, micronized material used for Example 9 tablets
From the text: The parameters Dv10, Dv50, Dv90 and Dv99 represent the particle size at the 10%, 50%, 90% and 99% points of the cumulative volume undersize particle size distribution. Thus, a “Dv10” for a material represents a particle size wherein 10% of the volume of the material consists of particles having a particle size equal to the Dv10 value or smaller. A “Dv50” for a material represents a particle size wherein 50% of the volume of the material consists of particles having a particle size equal to the Dv50 value or smaller. A “Dv90” for a material represents a particle size wherein 90% of the volume of the material consists of particles having a particle size equal to the Dv90 value or smaller. A “Dv99” for a material represents a particle size wherein 99% of the volume of the material consists of particles having a particle size equal to the Dv99 value or smaller.
The particle size distribution ranges defined herein are based upon measurements made using technology and instruments using laser particle size analysis using the instruments and methods developed by [sequence] GmbH, in particular Sympatec HELOS which can provide particle size analysis of dry and wet samples, i.e., of powders, suspensions, emulsions or sprays and is built to the specifications of ISO 13320 “Particle size analysis—laser diffraction methods.”
Finally, the possible role of the particle size of bromocriptine mesylate used in the manufacturing process was investigated. The volume-based particle size distribution for the bromocriptine mesylate used in preparing the tablet batches was measured by laser diffractometry using a Sympatec HELOS Laser Diffractometer.
Bulk batches of bromocriptine mesylate were micronized using a jet mill under a nitrogen atmosphere at a controlled temperature of 0° C. The volume particle size distribution was measured using a Sympatec HELOS H1013 Laser Diffractometer.

CC(C)C[C@H]1C(=O)N2CCC[C@H]2[C@]2(O)O[C@](NC(=O)[C@@H]3C=C4c5cccc6[nH]c(Br)c(c56)C[C@H]4N(C)C3)(C(C)C)C(=O)N12.CS(=O)(=O)O [Micronized Bromocriptine Mesylate]
% < 1 μm: 9%
% < 10 μm: 98%
% < 15 μm: 100%

From US11666567B2, “Bromocriptine formulations” (VeroScience LLC, priority 2012, dated 2023)
